Where a name gives a salt, the structure may show the parent alone.
Each compound was assayed on anesthetized rats (assay: Effect on pelvic nerve stimulation-induced elevation of intravesical pressure in anesthetized rats). Conditions: Rattus norvegicus; 3 mg/kg intravenous; maximum effect within one hour; AUC, pre-treatment = 100%; SD female rats; read-out: Increase rate of intravesical pressure (% of pre).
Type: in vivo
Description: Test Example 3: Effect on Pelvic Nerve Stimulation-Induced Elevation of Intravesical Pressure in Anesthetized Rats
The effect of the Example compounds of the present invention in the pelvic nerve electrical stimulation-induced elevation of intravesical pressure using rats as an action of nerve stimulation-dependent bladder contraction in vivo was measured by the following method. That is, SD female rats (Japan SLC, Inc.) were used and its lower abdomen was dissected at the midline under pentobarbital anesthesia (50 mg/kg ip). After ligating and cutting the ureter on both sides, a cannula (PE-50) for measuring the intravesical pressure was inserted into the bladder from the external urethral opening and fixed by a clip. After injecting about 200 μL of saline through the cannula that had been inserted into the bladder, the other side was connected to a pressure transducer to measure the intravesical pressure. Under a stereoscopic microscope observation, the pelvic nerve in the vicinity of the bladder was peeled and an electrode for nerve stimulation (unique Medical) was placed. The abdominal cavity was filled with mineral oil (MP BIOMEDICALS). After placing in a post-operative stabilization period, the pelvic nerve was subjected to electrical stimulation (stimulation voltage: 10 V, stimulation frequency: 8 Hz, pulse width: 0.3 msec, and stimulation time: 10 seconds) to elicit the elevation of intravesical pressure, using an electrical stimulator (Nihon Kohden). By repeating the electrical stimulation at an interval of 2 minutes while adjusting the voltage, the voltage was adjusted to elicit about 50% to 70% elevation of intravesical pressure elicited at 10 V. Thereafter, by repeating the electrical stimulation at an interval of 10 minutes, the increase in the intravesical pressure by electrical stimulation was stabilized three times or more, and the test substance (an administration amount of 3 mg/kg) was then administered from the catheter detained in the vein at a volume of 1 mL/kg, thus measuring an effect of the elevation of the intravesical pressure of the test substance for 1 hour. The test substance was dissolved in water supplemented with 10% DMSO and 10% Cremophor.
The response was applied to a personal computer through a PowerLab (registered trademark) and analyzed by LabChart (registered trademark). The AUC of each elevation of the intravesical pressure was calculated, the intravesical pressure elevation rate (% of pre) after the treatment with the test substance was calculated by taking an average value of the values measured three times before the treatment with the test substance as 100%, and the maximum effect during a period within one hour after administration of the compound was considered as the effect of the test substance.

| Compound | response vs control in vivo at 3 mg/kg |
| --- | --- |
| C[C@@H]1CCCN1Cc1sc(Nc2nccc(N3CCN(CCC(=O)O)CC3)c2F)nc1-c1ccc(Cl)c(C(F)(F)F)c1 [Example 2, sodium 3-(4-{2-[(4-[4-chloro-3-(trifluoromethyl)phenyl]-5-{[(2R)-2-methylpyrrolidin-1-yl]methyl}-1,3-thiazol-2-yl)amino]-3-fluoropyridin-4-yl}piperazin-1-yl)propanoate] | 143% |
| C[C@@H]1CCCN1Cc1sc(Nc2nccc(N3CCN(CCC(=O)O)CC3)c2F)nc1-c1cc(F)cc(C(F)(F)F)c1 [Example 5, 3-(4-{3-fluoro-2-[(4-[3-fluoro-5-(trifluoromethyl)phenyl]-5-{[(2R)-2-methylpyrrolidin-1-yl]methyl}-1,3-thiazol-2-yl)amino]pyridin-4-yl}piperazin-1-yl)propanoic acid trihydrochloride] | 146% |
| Cc1nc(Nc2nc(-c3cc(F)cc(C(F)(F)F)c3)c(CN3CCC[C@H]3C)s2)cc(N2CCN(CCC(=O)O)[C@@H](C)C2)n1 [Example 15] | 130% |
| Cc1nc(Nc2nc(-c3cc(F)cc(C(F)(F)F)c3)c(CN3CCC[C@H]3C)s2)cc(N2CCN(CC(=O)O)CC2)n1 [Example 16] | 111% |
| C[C@@H]1CN(c2cc(Nc3nc(-c4cc(F)cc(C(F)(F)F)c4)c(CN4CCC[C@H]4C)s3)ncn2)CCN1CCC(=O)O [Example 20] | 118% |
| Cc1nc(Nc2nc(-c3cc(F)cc(C(F)(F)F)c3)c(CN3CCC[C@H]3C)s2)cc(N2CCN(CCC(=O)O)[C@H](C)C2)n1 [Example 21] | 116% |
| COC1CCN(c2sc(Nc3cc(N4CCN(CCC(=O)O)CC4)nc(C)n3)nc2-c2cc(F)cc(C(F)(F)F)c2)CC1 [Example 27] | 123% |
| CN(Cc1sc(Nc2ncnc(N3CCN(CCC(=O)O)CC3)c2F)nc1-c1cc(F)cc(C(F)(F)F)c1)CC1CC1 [Example 29] | 145% |
| Cc1nc(Nc2nc(-c3cc(F)cc(C(F)(F)F)c3)c(CN3CCC[C@H]3C)s2)cc(N2CCC(OCC(=O)O)CC2)n1 [Example 30] | 124% |
| C[C@@H]1CCCN1Cc1sc(Nc2ncnc(N3CCN(CCC(=O)O)[C@@H](C)C3)c2F)nc1-c1cc(F)cc(C(F)(F)F)c1 [Example 31] | 138% |
| CO[C@H]1CCCN(c2sc(Nc3ncnc(N4CCN(CCC(=O)O)CC4)c3F)nc2-c2ccc(Cl)c(C(F)(F)F)c2)C1 [Example 32] | 232% |
| C[C@@H]1CCCN1Cc1sc(Nc2ncnc(N3CC[C@H](N(C)CCC(=O)O)C3)c2F)nc1-c1cc(F)cc(C(F)(F)F)c1 [Example 34] | 159% |
| C[C@@H]1CCCN1Cc1sc(Nc2ncnc(N3CCN(CCC(=O)O)[C@@H](C)C3)c2F)nc1-c1ccc(Cl)c(C(F)(F)F)c1 [Example 35] | 154% |
| C[C@@H]1CC[C@@H](C)N1Cc1sc(Nc2ncnc(N3CCN(CCC(=O)O)CC3)c2F)nc1-c1ccc(Cl)c(C(F)(F)F)c1 [Example 36] | 191% |
| CC[C@@H]1CCCN1Cc1sc(Nc2nc(C)nc(N3CCN(CCC(=O)O)CC3)c2F)nc1-c1cc(F)cc(C(F)(F)F)c1 [Example 38] | 142% |
| COC1(C(=O)O)CCN(c2ncnc(Nc3nc(-c4cc(F)cc(C(F)(F)F)c4)c(CN4CCC[C@H]4C)s3)c2F)CC1 [Example 39] | 123% |
| C[C@@H]1CC[C@@H](C)N1Cc1sc(Nc2ncnc(N3CCN(CCC(=O)O)CC3)c2F)nc1-c1cc(Cl)cc(C(F)(F)F)c1 [Example 40] | 212% |
| C[C@@H]1CCCCN1Cc1sc(Nc2ncnc(N3CCN(CCC(=O)O)CC3)c2F)nc1-c1cc(Cl)cc(C(F)(F)F)c1 [Example 43] | 177% |
| C[C@@H]1CCCN1Cc1sc(Nc2ncnc(N3CCN(CCC(=O)O)C(CF)C3)c2F)nc1-c1cc(F)cc(C(F)(F)F)c1 (stereo partly shown) [Example 45] | 182% |
| C[C@@H]1CCCN1Cc1sc(Nc2ncnc(N3CCN(CCC(=O)O)CC3)c2F)nc1-c1cc(Cl)cc(OC(F)(F)F)c1 [Example 51] | 129% |

| Compound | response vs control in vivo at 3 mg/kg |
| --- | --- |
| C[C@@H]1CCCN1Cc1sc(Nc2ncnc(N3CC[C@H](N(C)CCC(=O)O)C3)c2F)nc1-c1ccc(Cl)c(C(F)(F)F)c1 [Example 53] | 145% |
| COC1(C(=O)O)CCN(c2ncnc(Nc3nc(-c4cc(F)cc(C(F)(F)F)c4)c(CN4[C@H](C)CC[C@H]4C)s3)c2F)CC1 [Example 54] | 150% |
| COC[C@H]1CN(c2ncnc(Nc3nc(-c4ccc(Cl)c(C(F)(F)F)c4)c(CN4CCC[C@H]4C)s3)c2F)CCN1CCC(=O)O [Example 55] | 189% |
| C[C@@H]1CCCN1Cc1sc(Nc2ncnc(N3CCN(CCC(=O)O)[C@H](CF)C3)c2F)nc1-c1cc(F)cc(C(F)(F)F)c1 [Example 58] | 175% |
| C[C@@H]1CCCN1Cc1sc(Nc2ncnc(N3CCN(CCC(=O)O)[C@H](CF)C3)c2F)nc1-c1ccc(Cl)c(C(F)(F)F)c1 [Example 59] | 225% |
| CC[C@@H]1CCCN1Cc1sc(Nc2ncnc(N3CCN(CCC(=O)O)CC3)c2F)nc1-c1cc(Cl)cc(C(F)(F)F)c1 [Example 63] | 198% |
| C[C@@H]1CC[C@@H](C)N1Cc1sc(Nc2ncnc(N3CC[C@H](N(C)CCC(=O)O)C3)c2F)nc1-c1cc(Cl)cc(C(F)(F)F)c1 [Example 65] | 174% |
| C[C@@H]1CCCN1Cc1sc(Nc2ncnc(N3CCC(OCC(=O)O)CC3)c2F)nc1-c1cc(Cl)cc(C(F)(F)F)c1 [Example 67] | 169% |
| C[C@@H]1CC[C@@H](C)N1Cc1sc(Nc2ncnc(N3CCC(OCC(=O)O)CC3)c2F)nc1-c1cc(Cl)cc(C(F)(F)F)c1 [Example 68] | 172% |
| CC[C@@H]1CCCN1Cc1sc(Nc2ncnc(N3CC[C@H](N(C)CCC(=O)O)C3)c2F)nc1-c1cc(Cl)cc(C(F)(F)F)c1 [Example 69] | 150% |
| CC[C@@H]1CCCN1Cc1sc(Nc2ncnc(N3CCN(CCC(=O)O)[C@H](COC)C3)c2F)nc1-c1cc(F)cc(C(F)(F)F)c1 [Example 70] | 151% |
| CC[C@@H]1CCCN1Cc1sc(Nc2ncnc(N3CCN(CCC(=O)O)[C@H](COC)C3)c2F)nc1-c1cc(Cl)cc(C(F)(F)F)c1 [Example 71] | 197% |
| C[C@@H]1CCCN1Cc1sc(Nc2ncnc(N3CCN(CC(=O)O)CC3)c2F)nc1-c1cc(Cl)cc(C(F)(F)F)c1 [Example 77] | 140% |
| C[C@@H]1CCCN1Cc1sc(Nc2ncnc(N3CCN(CCC(=O)O)[C@@H](CO)C3)c2F)nc1-c1cc(F)cc(C(F)(F)F)c1 [Example 86] | 164% |
| C[C@@H]1CCCN1Cc1sc(Nc2cc(N3CCN(CCC(=O)O)CC3)ncn2)nc1-c1cc(Cl)cc(C(F)(F)F)c1 [Example 92] | 105% |
| COc1c(F)cc(-c2nc(Nc3cc(N4CCN(CCC(=O)O)CC4)ncn3)sc2CN2CCC[C@H]2C)cc1C(F)(F)F [Example 94] | 114% |
| CCN(CC)Cc1sc(Nc2nc(C)nc(N3CCN(CCC(=O)O)CC3)c2F)nc1-c1cc(F)cc(C(F)(F)F)c1 [Example 97] | 143% |
| Cc1nc(Nc2nc(-c3cc(F)cc(C(F)(F)F)c3)c(CN(C)C(C)C)s2)c(F)c(N2CCN(CCC(=O)O)CC2)n1 [Example 98] | 139% |
| Cc1nc(Nc2nc(-c3cc(F)cc(C(F)(F)F)c3)c(CN3[C@H](C)CC[C@H]3C)s2)cc(N2CCN(CCC(=O)O)CC2)n1 [Example 99] | 121% |
| C[C@@H]1CC[C@@H](C)N1Cc1sc(Nc2nccc(N3CCN(CCC(=O)O)CC3)c2F)nc1-c1cc(F)cc(C(F)(F)F)c1 [Example 100] | 145% |
